Measured values published in patent publication US20130004959A1, “SCREENING DEVICE CONTAINING NANOG PROMOTER, SOX2 PROMOTER, LIN 28 PROMOTER, OCT4 PROMOTER AND LUCIFERASE GENE AND SCREENING METHOD THEREOF” (NATIONAL CENTRAL UNIVERSITY, priority 2011, published 2013).

Test system: Nanog promoter, Sox2 promoter, Lin28 promoter, Oct4 promoter
Assay: Luciferase assay in the screening device (cells stably carrying pStable promoter-Luc reporter plasmids)
Type: cell-based, mouse
Settings: 2 mM VPA, reacted with cells for 24 hours, "24 hr cell"; C2C12 / P19 stable clones
Description: The screening is performed after the cells that express various promoters stably being prepared. […] The reporter plasmids whose backbone is constructed by the method mentioned above are transinfected individually into different dishes of host cells. After the reporter plasmids have been introduced into C2C12 or P19 cells, use G418 (Geneticin), a selective antibiotic for Neomycin resistance gene, to screen positive clones because pStable clones carry Neomycin resistance gene. After cell culture, transinfection, stable clone selection, and cells growing as colonies, stable clones in which various different promoters are expressed are obtained. In an embodiment of the present invention, pStable-Nanog-p-Luc plasmid, pStable-Sox2-p-Luc plasmid, pStable-Lin28-p-Luc plasmid and pStable-Oct4-p-Luc plasmid are introduced into both a C2C12 cell line and a P19 cell line. […] The C2C12 cell and P19 cell are cultured in an incubator under normal growth conditions (typically at 37° C., 5% CO2, and saturated humidity). Culture conditions of C2C12 cells and P19 cells are listed in the following list one: After the transfection processes, perform stable clone selection. The transfected cells are cultured in a culture medium containing 800 ug/ml G418. […] In an embodiment of the present invention, harvest cells after cells being reacted with 2 mM VPA for 24 hours and measure luminescence expression of cells. […]

CCCC(CCC)C(=O)O [VPA, valporic acid]
level of Luciferase (luminescence expression): higher level of Luciferase
